Data: US11718610B2, “Compounds containing benzosultam” (MEDSHINE DISCOVERY INC., priority 2020, dated 2023)
Read-outs that look alike come from different tables or passages of the source.

What was measured:
Calu-6 cells = assay: Calu-6 (Kras Q61K) antiproliferative activity experiment (CellTiterGlo); assay type: cell-based, human; details: cultured three days
Protocol: Experimental Embodiment 1: Calu-6 (Kras^Q61K) Antiproliferative Activity Experiment
(1) cell culture medium: 88% RPMI-1640, 10% fetal bovine serum, 1% L-glutamine and 1% penicillin-streptomycin;
(2) culture medium, trypsin and DPBS were preheated in a 37° C. water bath;
(3) the original culture medium was removed in the cell culture flask and washed once with 6 mL of PBS;
(4) 3.5 mL of trypsin was added to the cell culture flask, and the cell culture flask was shaken gently, and the trypsin was removed after full contact with the cell, and then the culture flask was placed into a 37° C. incubator containing 5% CO2 for about 1 minute;
(5) the cells were resuspended with 10 mL of cell culture medium, and about 0.6 mL of cell suspension (ViCell XR) was taken out for counting;
(6) the cell suspension was diluted with culture medium to a cell density required for plating of 2.5×10^4 cells per mL;
(7) 100 μL of PBS was added to each well around the cell plate, and 40 μL of cell suspension was added to the other wells, and placed in a 37° C. incubator containing 5% CO2 for overnight culture.
(8) The required cell amount and culture medium were taken based on the new T75 culture flask for continued culture.
(1) the compound to be tested was prepared into […] solution with DMSO;
(2) 9 μL of the compound was taken and added to Echo shallow well plate (Labcyte, #LP-0200), and the shallow well plate was centrifuged at 1000 rpm for 10 seconds;
(3) DPBS at the periphery of the cell plate was sucked out;
(4) the compound was gradient diluted and administrated with Echo, and 10 concentration gradients of each compound were diluted, and 100 nL of the diluent was added to the 384 cell plate separately, and then the cell plate was put back to the incubator and cultured for three days;
(5) then 100 μL of DPBS was added to the periphery of the cell plate.
(1) CTG was added and the plate was read: 20 μL of CellTiterGlo was added to each well of the cell plate, and the cell plate was shaken in the dark for 10 min. and the plate was read on Envision.

[1] = tested on: ERK phosphorylation in Calu-6 cells; assay: Calu-6 (Kras Q61K) ERK phosphorylation inhibition experiment (HTRF); assay type: cell-based, human; details: Homo sapiens, Calu-6, 1 h, 1 hour incubation with compound
Protocol: Experimental Embodiment 5: Calu-6 (Kras^Q61K) ERK Phosphorylation Inhibition Experiment
1) the cells were resuscitated and cultured to logarithmic growth phase, digested with trypsin, seeded in 96-well plates with 30000 cells per well, and incubated overnight in an incubator.
2) 1 μL of gradient compound dissolved with DMSO was added to a 96-well plate and placed back into an incubator to incubate for 1 hour.
3) The cell plates were removed out, and the culture medium was poured off, and 50 μL of cell lysate (with 1% blocking peptide) was added to each well.
4) The lysate plate was mixed at 500 rpm and incubated and lysed at room temperature for 30 minutes.
5) The antibody mixture in the kit was prepared at a ratio of 1:1:38.
6) 16 μL of cell lysate was transferred to the HTRF plate per well, then the 4 μL of the configured antibody mixture was added thereto.
7) After incubation overnight, the plate was read with Envision, and the fitted curve was obtained according to the ratio (the ratio of fluorescence intensity of […]) and the EC50 was calculated according to the four-parameter fitting formula Y=Bottom+(Top−Bottom)/(1+10^((Log EC50−X)*HillSlope)) of Graphpad.

A375 cells = assay: A375 (BRAF V600E) antiproliferative activity experiment (CellTiter-glo); assay type: cell-based; details: Homo sapiens, A-375, 120 h, cultured 5 days
Protocol: Experimental Embodiment 3: A375 (BRAF^V600E) Antiproliferative Activity Experiment
Cell line A375 (purchased from Procell). DMEM culture medium, penicillin/streptomycin antibiotics were purchased from Vicente, and fetal bovine serum was purchased from Biosera. CellTiter-glo (cell viability chemiluminescence detection reagent) reagent was purchased from Promega.
A375 cells were seeded in a white 96 well plate with […] of cell suspension per well containing 2000 of A375 cells. The cell plate was placed in a carbon dioxide incubator and cultured overnight. The compound to be tested was diluted 3-fold to the 9th concentration with a pipette, that is, diluted from 6 mmol to 0.91 μmol, and a double-duplicate experiment was set-up, 78 μmol of culture medium was added to the middle plate, then 2 μmol of gradient dilution compound per well was transferred to the middle plate according to the corresponding position, and 20 μmol per well was mixed and transferred to the cell plate. The concentration of the compound transferred to the cell plate ranged from 30 μmol to 4.57 nmol. The cell plate was placed in a carbon dioxide incubator and cultured for 5 days. Another cell plate was prepared, and the signal value was read as the maximum value (max value in the following equation) on the day of administration to participate in data analysis, 25 μmol of cell viability chemiluminescence detection reagent was added to each well of the cell plate and incubated at room temperature for 10 minutes to stabilize the luminescence signal. A multi-marker analyzer reading was used. After the incubation of the cell plate added with the compound was finished, 25 μmol of cell viability chemiluminescence detection reagent was added to each well of the cell plate and incubated at room temperature for 10 minutes to stabilize the luminescence signal. A multi-marker analyzer reading was used.
The equation (Sample−Min)/(Max−Min)*100% was used to convert the original data into inhibition rate, and the IC50 value could be obtained by curve fitting with four parameters (obtained by “log (inhibitor) vs. response—variable slope” mode in GraphPad Prism).

[2] = Pharmacokinetics of single intravenous and oral administration in mice; assay type: in vivo; details: for Cmax / Tmax: 50 mg/kg/day, single oral administration; for Cmax: read-out: Maximum plasma drug concentration Cmax; for Vd / clearance / half-life: single intravenous administration, 0.5 mg/kg/day; for Vd: read-out: Apparent distribution volume Vdss; for clearance: read-out: Clearance rate Cl; for half-life: read-out: Half-life (T1/2) (converted); for Tmax: read-out: Peak time Tmax
Protocol: (§1) Experimental Embodiment 6: Pharmacokinetics Study of Single Intravenous and Oral Administration in Mice and Dogs
(§2) This experiment was aimed to study the pharmacokinetics of the test compound in mice and dogs in vivo after a single oral administration of the compound.
(§3) After intravenous or oral administration, blood samples were collected and the actual blood collection time was recorded. After the blood sample was collected, the sample was immediately transferred to a labeled centrifuge tube containing K2-EDTA, and then the plasma was taken after centrifugation. The plasma was transferred to a precooled centrifuge tube, quickly frozen in dry ice, and stored in an ultra-low temperature refrigerator at −70±10° C. until LC-MS/MS analysis.
(§4) Pharmacokinetic software was used to process the plasma drug concentration data of the compound with […] model. The peak concentration (Cmax) and peak time (Tmax), as well as the end time of quantification, were obtained directly from the plasma drug concentration-time graph. The following pharmacokinetic parameters were calculated by logarithmic linear trapezoidal method: half-life (T1/2), apparent distribution volume (Vdss) and clearance rate (Cl), and the area under the time-plasma concentration curve from 0 to the end time point (AUC0-last).

[3] = Pharmacokinetics of single intravenous and oral administration in dogs; assay type: in vivo; details: dog
Protocol: as §1, §2, §3, §4

IC50 (Calu-6 cells; Homo sapiens, Calu-6, 72 h) [nM] | IC50 [1] [nM] | IC50 (A375 cells) [nM] | Cmax ([2]; mouse, plasma, po) [µM] | Vd ([2]; mouse, plasma) [L/kg] | clearance ([2]; mouse, plasma) [mL/min/kg] | half-life ([2]; mouse, plasma) [h] | Tmax ([2]; mouse, plasma) [h] | IC50 (Calu-6 cells) [nM] | Cmax [2] [µM] | Apparent distribution volume ([3]; intravenous injection, 2 mg/kg/day) [L/kg] | Maximum plasma drug concentration ([3]; oral, 10 mg/kg/day) [nmol/L] | Peak time ([3]; oral, 10 mg/kg/day) [h] | clearance ([3]; plasma, intravenous injection, 2 mg/kg/day, read-out: Clearance rate) [mL/min/kg] | half-life ([3]; plasma, intravenous injection, 2 mg/kg/day, read-out: Half-life (T1/2) (converted)) [h] | bioavailability ([3]; plasma, oral 10 mg/kg/day vs intravenous 2 mg/kg/day) [%] | Structure (SMILES)
222 | 3.99 | 14 | 124 | 0.297 | 7.03 | 1.26 | 1.5 | – | – | – | – | – | – | – | – | [2H]C1([2H])CC(Nc2ncc(Cl)c(-c3ccc4c(c3)S(=O)(=O)N([C@H](C)C(=O)N[C@H](CO)c3cc(F)cc(OC)c3)C4)n2)CC([2H])([2H])O1 [Compound 9]
– | 5.88 | 15 | – | 0.4 | 10.3 | 1.16 | 1 | 88.5 | 73.4 | – | – | – | – | – | – | COc1cc(F)cc([C@@H](CO)NC(=O)[C@@H](C)N2Cc3ccc(-c4nc(NC5CCOCC5)ncc4Cl)cc3S2(=O)=O)c1 [Compound 1]
300 | 3.98 | 13 | 156 | 0.656 | 19 | 2.18 | 1 | – | – | 0.112 | 26700 | 3.00 | 1.34 | 4.3 | 59.8 | COc1cc(F)cc([C@@H](CO)NC(=O)[C@@H](C)N2Cc3ccc(-c4nc(NC5CCOCC5)ncc4Br)cc3S2(=O)=O)c1 [Compound 3]
– | 6.51 | 16 | 157 | 0.422 | 13.8 | 1.17 | 0.75 | – | – | – | – | – | – | – | – | COc1cc(F)cc([C@@H](CO)NC(=O)[C@@H](C)N2Cc3ccc(-c4nc(N[C@H]5CCOC[C@H]5F)ncc4Cl)cc3S2(=O)=O)c1 [Compound 11]
